According to patent US20150064227A1, “Sporicidal Formulation Including Botanical Extracts/Botanical-Derived Ingredients” (priority 2011, published 2015):

These compounds were tested on C. diff. spores (Clostridium difficile ATCC 43593) (assay: Sporicidal Efficacy Test against C. diff. spores). Conditions: botanical-derived ingredient 5.9 mg/ml in 75 % ethanol / 25 % water by volume; 5 min contact time.
Format: cell-based
Text: (§1) To determine the kill rate of solutions of interest against bacterial spores.
(§2) Materials: • 1. Test solutions of interest • 2. Clostridium difficile ATCC 43593 • 3. Geobacillus stearothermophilus CICC 10142 • 4. Filter sterilized MilliQ water • 5. Neutralization broth (prepared according to directions below) • 6. Brain Heart Infusion (BHI) agar plates with 0.15% Sodium Taurocholate • 7. Tryptic Soy Agar (TSA) plates • 8. Taurocholic acid sodium salt hydrate (Sigma-Aldrich T-4009) • 9. Phosphate buffered saline (PBS) pH 7.2 • 10. Fetal Bovine Serum (FBS) • 11. Sterile plating beads • 12. Sterile Eppendorf vials (1.5 mL) • 13. Sterile tubes (15 mL) • 14. Pipettes and sterile pipette tips (100 μL and 1000 μL) • 15. Incubator capable of 37±3° C. • 16. Anaerobic rectangular jar (7 Liter AnaeroPack System commercially available from Mitsubishi Gas Chemical Co.) with 3 GasPak satchels (BD GasPak EZ, #260678)
(§3) Procedure: • 1. Prepare culture stock of organism of interest to 10^7 CFU/ml in PBS. • 2. Thoroughly vortex the stock culture for ten minutes at medium-high speed. • 3. Dilute a small portion of the stock culture in MilliQ filter sterilized water and add FBS soil load to the inoculum to achieve a concentration of 5% v/v FBS. • 4. Place the inoculum in a sonicating water bath for five cycles of one minute on, one minute off • 5. Add 100 μL of spore culture to sterile vial containing 900 μL of test solution and vortex. • 6. After the test exposure time, vortex the vials. • 7. Transfer 100 μL of test solution and spore mixture to sterile tubes containing 900 μL neutralization broth to neutralize. • 8. Place the neutralized samples in a sonicating water bath for five cycles of one minute on, one minute off • 9. Vortex each tube. For C. difficile, pipette 100 μL of each neutralized sample on BHI+0.15% sodium taurocholate media plates (prepared in lab according to dehydrated powder instructions). For G. stearothermophilus, pipette 100 μL of each neutralized sample onto TSA plates. Spread using sterile beads. • 10. Prepare a control sample by adding the spore culture to 900 μL of filter sterilized MQ water and repeat steps 3-6 above. Dilute control code to achieve 10^2 CFU/ml. • 11. For C. difficile, place plates in anaerobic jars or boxes (with appropriate number of catalase pouches) or in the anaerobic chamber and incubate for 48±8 hours at 37±3° C. For G. stearothermophilus, incubate plates aerobically for 48±8 hours at […]. • 12. After incubation, enumerate colonies and record results. Calculate Log10 reduction by comparing the number of colonies recovered from the test solution versus those recovered with the control.
(§4) Neutralization Broth Preparation: • 1. Mix the following ingredients: • 1 L Letheen broth • 0.3% ppm Lecithin • 3% ppm Tween 80 • 0.1% ppm Histidine • 2. Solution is sterilized by autoclave. • 3. Catalase (0.1-0.2%) is added when completely cooled and then filter sterilized.

Row | Compound | Log Reduction (5 min contact time)
1 | C[C@H]1COC2=C1C(=O)C(=O)c1c2ccc2c1CCCC2(C)C [Cryptotanshinone] | 3.43

Same assay, conditions: botanical-derived ingredient 10 mg/ml in 75 % ethanol / 25 % water by volume; 5 min contact time

Row | Compound | Log Reduction (5 min contact time)
2 | CC(C)=CCC[C@]1(C)C=Cc2c(O)c3c(c(CC=C(C)C)c2O1)O[C@]12C(=C[C@@H]4C[C@H]1C(C)(C)O[C@@]2(C/C=C(/C)C(=O)O)C4=O)C3=O [Gambogic acid] | 3.96
3 | CC(C)=CCCC1(C)CC(O)c2c(O)c3c(c(CC=C(C)C)c2O1)OC12C(=CC4CC1C(C)(C)OC2(C/C=C(\C)C(=O)O)C4=O)C3=O (stereo not drawn) [Neogambogic acid] | 3.96

Same assay, conditions: concentration not given

Row | Compound | sporicidal activity against C. diff. (in words)
4 | Cc1cccc2c3c(ccc12)C1=C(C(=O)C3=O)[C@@H](C)CO1 [dihydrotanshinone] | no detectable effect
5 | Cc1coc2c1C(=O)C(=O)c1c-2ccc2c1CCCC2(C)C [tanshinone IIA] | no detectable effect

Each compound was assayed on bacterial spores (assay: Sporicidal Efficacy Test, spore species not given). Conditions: under the Sporicidal Efficacy Test; concentration not given.
Format: cell-based
Text: as §1, §2, §3, §4

Row | Compound | sporicidal activity (in words)
6 | CC(C)=CCC[C@]1(C)C=Cc2c(O)c3c(c(CC=C(C)C)c2O1)O[C@]12C(=C[C@@H]4C[C@H]1C(C)(C)O[C@@]2(C/C=C(/C)C(=O)O)C4=O)C3=O [Gambogic acid] | demonstrated sporicidal activity
7 | C[C@H](N)C(=O)O [L-alanine] | None of these ingredients derived from botanical extracts illustrated sporicidal activity
8 | O=C(O)[C@@H]1CCCN1 [L-proline] | None of these ingredients derived from botanical extracts illustrated sporicidal activity
9 | CC(C)=CCCC1(C)CC(O)c2c(O)c3c(c(CC=C(C)C)c2O1)OC12C(=CC4CC1C(C)(C)OC2(C/C=C(\C)C(=O)O)C4=O)C3=O (stereo not drawn) [Neogambogic acid] | demonstrated sporicidal activity
10 | CC(C)=CCc1cc2c(cc1O)O[C@H](c1ccc(O)cc1)CC2=O [bavachin] | None of these ingredients derived from botanical extracts illustrated sporicidal activity
11 | O=C(O)/C=C/c1ccc(O)c(O)c1 [caffeic acid] | None of these ingredients derived from botanical extracts illustrated sporicidal activity
12 | CC12CCC(CC1)C(C)(C)O2 [cineole] | None of these ingredients derived from botanical extracts illustrated sporicidal activity
13 | Cc1cccc2c3c(ccc12)C1=C(C(=O)C3=O)[C@@H](C)CO1 [dihydrotanshinone] | None of these ingredients derived from botanical extracts illustrated sporicidal activity
14 | COc1cc(/C=C/C(=O)O)ccc1O [ferulic acid] | None of these ingredients derived from botanical extracts illustrated sporicidal activity
15 | COC(=O)C1=CO[C@@H](O[C@@H]2O[C@H](CO)[C@@H](O)[C@H](O)[C@H]2O)[C@@H]2C(CO)=CC[C@H]12 [geniposide] | None of these ingredients derived from botanical extracts illustrated sporicidal activity
16 | O=c1c(-c2ccc(O)cc2)coc2cc(O)cc(O)c12 [genistein] | None of these botanical extracts illustrated sporicidal activity
17 | COc1ccc(-c2oc3c(CC=C(C)C)c(O)cc(O)c3c(=O)c2O)cc1 [icaritin] | None of these ingredients derived from botanical extracts illustrated sporicidal activity
18 | CC(C)=CCOc1c2occc2cc2ccc(=O)oc12 [imperatonin] | None of these ingredients derived from botanical extracts illustrated sporicidal activity
19 | CC(C)=CCOc1c2ccoc2cc2oc(=O)ccc12 [isoimperatorin] | None of these ingredients derived from botanical extracts illustrated sporicidal activity
20 | O=c1c(OC2OC(CO)C(O)C(O)C2O)c(-c2ccc(O)c(O)c2)oc2cc(O)cc(O)c12 (stereo not drawn) [isoquercetrin] | None of these ingredients derived from botanical extracts illustrated sporicidal activity
21 | O=c1c(O)c(-c2ccc(O)cc2)oc2cc(O)cc(O)c12 [kaempferol] | None of these botanical extracts illustrated sporicidal activity

Row | Compound | sporicidal activity (in words)
22 | O=c1cc(-c2ccc(O)c(O)c2)oc2cc(O)cc(O)c12 [luteolin] | None of these botanical extracts illustrated sporicidal activity
23 | CC(C)=CCc1cc(-c2coc3cc(O)ccc3c2=O)ccc1O [neobavaisoflavone] | None of these ingredients derived from botanical extracts illustrated sporicidal activity
24 | O=c1cc(-c2ccccc2)oc2cc(O)c(O)c(O)c12 [noroxylin] | None of these botanical extracts illustrated sporicidal activity
25 | CC1(C)CC[C@]2(C(=O)O)CC[C@]3(C)C(=CC[C@@H]4[C@@]5(C)CC[C@H](O)C(C)(C)[C@@H]5CC[C@]43C)[C@@H]2C1 [oleanolic acid] | None of these ingredients derived from botanical extracts illustrated sporicidal activity
26 | COc1ccc2ccc(=O)oc2c1CC=C(C)C [osthole] | None of these botanical extracts illustrated sporicidal activity
27 | O=C(O)C=Cc1ccc(O)cc1 [p-hydroxy-cinnamic acid] | None of these botanical extracts illustrated sporicidal activity
28 | O=C(O)c1ccc(O)cc1 [p-hydroxybenzoic acid] | None of these ingredients derived from botanical extracts illustrated sporicidal activity
29 | O=C(O)c1ccc(O)c(O)c1 [protocatechuic acid] | None of these ingredients derived from botanical extracts illustrated sporicidal activity
30 | O=c1c(-c2ccc(O)cc2)coc2c([C@@H]3O[C@H](CO)[C@@H](O)[C@H](O)[C@H]3O)c(O)ccc12 [puerarin] | None of these botanical extracts illustrated sporicidal activity
31 | O=c1c(O)c(-c2ccc(O)c(O)c2)oc2cc(O)cc(O)c12 [quercetin] | None of these botanical extracts illustrated sporicidal activity
32 | OC[C@H]1O[C@@H](OCCc2ccc(O)cc2)[C@H](O)[C@@H](O)[C@@H]1O [salidroside] | None of these botanical extracts illustrated sporicidal activity
33 | CC[C@H](/C=C/[C@@H](C)[C@H]1CC[C@H]2[C@@H]3CC=C4C[C@@H](O)CC[C@]4(C)[C@H]3CC[C@]12C)C(C)C [stigmasterol] | None of these ingredients derived from botanical extracts illustrated sporicidal activity
34 | Cc1coc2c1C(=O)C(=O)c1c-2ccc2c1CCCC2(C)C [tanshinone IIA] | None of these ingredients derived from botanical extracts illustrated sporicidal activity
35 | NCCC(=O)O [β-alanine] | None of these ingredients derived from botanical extracts illustrated sporicidal activity
36 | bavachinin | None of these ingredients derived from botanical extracts illustrated sporicidal activity
